Measured values published in US12465626B2, “Traditional Chinese medicine composition with improving cognition effect, preparation method thereof and traditional Chinese medicine preparation” (Chenland Nutritionals, Inc., priority 2019, dated 2025).

Experiments:
Assay type in all cases: in vivo
mice [1] = assay: Morris water maze test, directional navigation experiment; conditions: max 60 s
Experimental: (§1) Statistical methods: the data were analyzed by GraphPad Prism 7.01 software (GraphPad Software, Inc., San Diego, California, USA). Before the parameter test of all group tests, the data were tested by normality test (Kolmogorov-Smirnov test) and variance homogeneity test (Levene test). Except for the escape latency in water maze, all test parameters were compared between groups by non paired T-test (single tail), and the test level was set as p<0.05. The escape latency in water maze was compared between two groups by two-way analysis of variance. The post test was conducted by Sidak's multiple comparisons test, and the test level was set as p<0.05.
(§2) Implementation method: the test procedure included two parts: directional navigation and space exploration. A total of 5 consecutive days were tested. The first part was the directional navigation experiment, which was tested on mice for 4 days, and the second part was the space exploration experiment, which was tested for 1 day. The melanin edible toner was […] to hide the platform, and it was kept in sharp contrast with the color of mice during camera shooting for easy tracking. The platform was located 0.8 cm below the water surface and the water depth was 21 cm. It was located in the NW quadrant. The water temperature in the water maze was maintained at a constant temperature of 22-24° C. with a heating rod.
Directional navigation experiment: each mouse was trained 4 times a day, with an interval of 15-20 min. During the test, the water entry point was selected in a semi random way each time. The experimenter held the mouse by hand, made it face the pool wall, and gently put it into the water. In each training, if the mouse could find the platform within 60 s, and the time spent on the platform was more than 2 S, it was regarded as the sign of successful platform search. The time spent by the mice from entering the water to successful platform search was recorded as the latency. […] After the mice boarded the platform, the mice were kept on the platform for 10 s, so that they could carry out spatial learning and memory according to the reference objects of the four quadrants, and the tension of the mice were reduced. The average value of daily latency was calculated to evaluate the acquisition ability of animals' spatial memory.

mice [2] = assay: Novel object recognition test of mice
Experimental: Adaptation period: on the first day, the mice were placed in the test room for 1 hour of environmental adaptation and familiarity, and then placed in the open field box for 20 minutes (there was no object in the box), so as to eliminate the impact of the open field box on the tested mice. After the experiment of each mouse, the open field box was cleaned with 75% ethanol.
Familiarization period: on the second day (24 hours after the adaptation period), the mice were placed in the test room for 1 hour of environmental adaptation and familiarization, then two yellow cylindrical bottles of the same size and texture were placed at the left and right ends of the same side of the open field box as familiar objects, and then the mouse was put into the box with its back towards the objects. The mouse's exploration of the objects within 5 min was recorded (timing standard: the exploration time within 2 cm of the mouse's nose or mouth from the object, and its lying on the objects or just walking around the objects was not included). […]
Test period: 2 h after the familiarization period, replace a yellow cylindrical bottle in the open field box was replaced with a green conical bottle of the same size as a strange object, and then the mouse was put into the box with its back towards the objects. […] The recognition index (RI) was calculated: RI=Tn/(Tn+Tf). […]

mice [3] = assay: Step-down test of mice (scopolamine hydrobromide)
Experimental: as §1
Test method: the grouping, sample preparation and modeling of mouse step-down test were the same as above. At the beginning of the test, the step-down training was carried out, where the adaptation was carried out for 3 min and then the power on training was carried out for 300 s. The test was conducted after 24 hours. The drug was administered 1 hour before the test, and scopolamine hydrobromide and normal saline were injected intraperitoneally 15-20 minutes before the test. Then the mouse was put on the platform and the latency of jumping off the platform for the first time and the number of errors (getting off the platform) within 300 s were recorded.

mice [4] = assay: Morris water maze test, space exploration experiment; conditions: exploration period
Experimental: as §1, §2
Space exploration experiment: the platform was removed and each mouse was tested once for 60 s. The SE quadrant was selected and the mouse was gently put into the water facing the edge of the pool wall. The spatial memory ability of the animal was evaluated by the number of times the animal crossed the original platform position within 60 s, the run ratio and time ratio of the original platform quadrant (i.e. the ratio of the run and time of the animal's original platform quadrant to the total run and time).

[5] = after intragastric administration

C/C=C1\[C@H]2C=C(C)C[C@]1(N)c1ccc(=O)[nH]c1C2 [Positive drug, huperzine-A]
Escape latency First day (s) (x[…]SE) (mice [1]; first day, doses as Table 4, model group 53.2): 52.7 ± 2.29 s
Escape latency Fourth day (s) (x[…]SE) (mice [1]; fourth day, model group 47.7): 43.5 ± 2.83 s
Escape latency Second day (s) (x[…]SE) (mice [1]; second day, model group 44.2): 44.5 ± 2.80 s
Escape latency Third day (s) (x[…]SE) (mice [1]; third day, model group 42.4): 43.6 ± 2.91 s
Recognition index (x[…]SE) (mice [2]; RI=Tn/(Tn+Tf), intragastric, dose (crude drug) 1.002 g/kg (Embodiment 1, Comparative examples 1, 2), 1.200 g/kg (Comparative example 3), 0.67 tablets/kg (positive drug), model group 0.4180, control 0.5715): 0.5341 ± 0.0428
Recognition index compared with the model group (mice [2]; [5]): increased significantly
Step-down latency compared with the model group (mice [3]; [5]): significantly longer
Step-down number of errors compared with the model group (mice [3]; [5]): significantly lower
Number of errors (x[…]SE) (mice [3]; errors within 300 s, doses as Table 3, model group 2.714, control 1.375): 1.833 ± 0.3445
Latency/s (mice [3]; latency of jumping off the platform, max 300 s, drug 1 hour before test, doses as Table 2, model group 42.01, control 100.3): 94.12 ± 29.48 s
Stay time in target quadrant/s (x[…]SE) (mice [4]; 60 s, model group 14.15, control 17.30): 15.04 ± 0.9555 s
Number of crossing platform (x[…]SE) (mice [4]; within 60 s, model group 1.308, control 3.125): 2.786 ± 0.4591
Escape latency compared with the model group (mice [4]; [5]): significantly shorter
Number of crossing the platform compared with the model group (mice [4]; [5]): significantly higher
Escape latency/s (x[…]SE) (mice [4]; doses as Table 5, model group 39.27, control 20.05): 22.91 ± 3.922 s
Run distance of target quadrant/mm (x[…]SE) (mice [4]; model group 2373, control 2821): 2867 ± 207.6 mm
